Experimental data: PubChem BioAssay (NCI)
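In this assay, cells in 96-well plates receive the compound at five concentrations for 48 hours. Endpoints are linearly interpolated between the surrounding concentrations. The concentration for 50% growth inhibition is given as GI50. At the TGI there is no net growth.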

Columns and labels:
Experiment in all cases: growth of human tumour cells (NCI), 48 h
[1] = system: M14 melanoma
[2] = system: EKVX NSCLC
[3] = system: OVCAR-3 ovarian
[4] = system: RPMI-8226 leukemia
[5] = system: SK-MEL-28 melanoma
[6] = system: HL-60(TB) leukemia
[7] = system: HCT-116 colon
[8] = system: U251 CNS
[9] = system: SN12C renal
[10] = system: SNB-19 CNS
[11] = system: SK-MEL-5 melanoma
[12] = system: UO-31 renal
[13] = system: HS 578T breast
[14] = system: SR leukemia
[15] = system: NCI-H460 lung
[16] = system: NCI-H23 lung
[17] = system: HCT-15 colon
[18] = system: IGROV1 ovarian
[19] = system: SW-620 colon
[20] = system: COLO 205 colon
[21] = system: CCRF-CEM leukemia
[22] = system: A549 NSCLC
[23] = system: TK-10 renal
[24] = system: KM12 colon
[25] = system: ACHN renal
[26] = system: CAKI-1 renal
[27] = system: SK-MEL-2 melanoma
[28] = system: A498 renal
[29] = system: OVCAR-5 ovarian
[30] = system: MDA-MB-435
[31] = system: UACC-62 melanoma
[32] = system: MDA-MB-231 breast
[33] = system: MALME-3M melanoma
[34] = system: OVCAR-4 ovarian
[35] = system: K-562 leukemia
[36] = system: SF-268 CNS
[37] = system: BT-549 breast
[38] = system: MCF7 breast
[39] = system: LOX IMVI melanoma
[40] = system: DU-145 prostate
[41] = system: MOLT-4 leukemia
[42] = system: SF-295 CNS
[43] = system: RXF 393 renal
[44] = system: UACC-257 melanoma
[45] = system: PC-3 prostate
[46] = system: NCI-H226 lung
[47] = system: OVCAR-8 ovarian
[48] = system: NCI-H522 lung
[49] = system: 786-0 renal
[50] = system: SK-OV-3 ovarian
[51] = system: MDA-MB-468 breast
[52] = system: HCC-2998 colon
[53] = system: HOP-92 NSCLC
[54] = system: T-47D breast
[55] = system: HT29 colon
[56] = system: SF-539 CNS
[57] = system: HOP-62 NSCLC

Question: What does the source list for `CN(C)c1nc(NCCNS(=O)(=O)c2ccc(C(=O)/C=C/c3ccc(C(F)(F)F)cc3)cc2)nc(N2CCOCC2)n1`?
Answer: GI50 [1]: 9.83 µM; TGI [1]: 22.2 µM; GI50 [2]: 14.3 µM; TGI [2]: 27.4 µM; GI50 [3]: 16.4 µM; TGI [3]: 30.6 µM; GI50 [4]: 1.77 µM; TGI [4]: 5.72 µM; GI50 [5]: 14.4 µM; TGI [5]: 27.5 µM; GI50 [6]: 5.12 µM; TGI [6]: 86.3 µM; GI50 [7]: 3.19 µM; TGI [7]: 10 µM; GI50 [8]: 2.95 µM; TGI [8]: 11 µM; GI50 [9]: 12.5 µM; TGI [9]: 25 µM; GI50 [10]: 13.5 µM; TGI [10]: 26.4 µM; GI50 [11]: 15.8 µM; TGI [11]: 29.5 µM; GI50 [12]: 11.9 µM; TGI [12]: 24.2 µM; GI50 [13]: 17.8 µM; TGI [13]: 64.4 µM; GI50 [14]: 6.31 µM; TGI [14]: > 100 µM; GI50 [15]: 16.1 µM; TGI [15]: 32.5 µM; GI50 [16]: 13 µM; TGI [16]: 26.2 µM; GI50 [17]: 1.86 µM; TGI [17]: 3.62 µM; GI50 [18]: 1.77 µM; TGI [18]: 3.51 µM; GI50 [19]: 3.3 µM; TGI [19]: 11.1 µM; GI50 [20]: 15 µM; TGI [20]: 32.4 µM; GI50 [21]: 3.2 µM; TGI [21]: > 100 µM; GI50 [22]: 13.8 µM; TGI [22]: 29.3 µM; GI50 [23]: 15.5 µM; TGI [23]: 29.5 µM; GI50 [24]: 8.95 µM; TGI [24]: 25.5 µM; GI50 [25]: 8.6 µM; TGI [25]: 20.7 µM; GI50 [26]: 11.4 µM; TGI [26]: 24.3 µM; GI50 [27]: 16.3 µM; TGI [27]: 30.4 µM; GI50 [28]: 13.3 µM; TGI [28]: 26.6 µM; GI50 [29]: 14.5 µM; TGI [29]: 27.7 µM; GI50 [30]: 10.3 µM; TGI [30]: 23 µM; GI50 [31]: 11.2 µM; TGI [31]: 23.3 µM; GI50 [32]: 11.7 µM; TGI [32]: 24.2 µM; GI50 [33]: 14.4 µM; TGI [33]: 27.6 µM; GI50 [34]: 14.8 µM; TGI [34]: 28.9 µM; GI50 [35]: 3.21 µM; TGI [35]: > 100 µM; GI50 [36]: 16.3 µM; TGI [36]: 37.8 µM; GI50 [37]: 15.6 µM; TGI [37]: 29.3 µM; GI50 [38]: 1.68 µM; TGI [38]: 3.34 µM; GI50 [39]: 1.68 µM; TGI [39]: 3.16 µM; GI50 [40]: 15.4 µM; TGI [40]: 28.9 µM; GI50 [41]: 3.48 µM; TGI [41]: > 100 µM; GI50 [42]: 8.11 µM; TGI [42]: 20.6 µM; GI50 [43]: 11.5 µM; TGI [43]: 23.7 µM; GI50 [44]: 15.3 µM; TGI [44]: 29.4 µM; GI50 [45]: 10.8 µM; TGI [45]: 25.4 µM; GI50 [46]: 16.1 µM; TGI [46]: 35.6 µM; GI50 [47]: 14.4 µM; TGI [47]: 28.1 µM; GI50 [48]: 15.2 µM; TGI [48]: 29.8 µM; GI50 [49]: 14.5 µM; TGI [49]: 28.2 µM; GI50 [50]: 14.7 µM; TGI [50]: 29.5 µM; GI50 [51]: 5.11 µM; TGI [51]: 18.4 µM; GI50 [52]: 12.9 µM; TGI [52]: 26 µM; GI50 [53]: 15.2 µM; TGI [53]: 31.5 µM; GI50 [54]: 5.5 µM; TGI [54]: 27.2 µM; GI50 [55]: 2.06 µM; TGI [55]: 4.51 µM; GI50 [56]: 13 µM; TGI [56]: 25.7 µM; GI50 [57]: 17 µM; TGI [57]: 32.3 µM
